Measurements as given in article PMC10052868 (European journal of medicinal chemistry, 2022).
“Also recorded” adds a separate entry of the source. Structures can show the parent of a compound that is named as a salt.

Biological target: PfPK6 (Plasmodium falciparum, UniProt Q8IDW1)
Test: KinaseSeeker split-luciferase assay on PfPK6
Type: binding, P. falciparum
Conditions: not given

SMILES	IC50
COc1cc2nccc(Oc3ccc(NC(=O)Nc4cccc(C(F)(F)F)c4)c(F)c3)c2cc1OC [Compound 39, 1-(4-((6,7-dimethoxyquinolin-4-yl)oxy)-2-fluorophenyl)-3-(3-(trifluoromethyl)phenyl)urea]	< 5 nM

Same assay, conditions: KinaseSeeker, 1 μM

SMILES	activity against PfPK6 in words
O=C(Nc1ccc(O)cc1F)Nc1ccc(F)cc1F [Compound 5, 1-(2,4-difluorophenyl)-3-(2-fluoro-4-hydroxyphenyl)urea]	completely inactive
COc1ccc(NC(=O)Nc2ccc(F)cc2F)c(F)c1 [Compound 6, 1-(2,4-difluorophenyl)-3-(2-fluoro-4-methoxyphenyl)urea]	completely inactive
COc1cc2nccc(Oc3ccc(N)c(F)c3)c2cc1OC [Compound 14, 4-((6,7-dimethoxyquinolin-4-yl)oxy)-2-fluoroaniline]	complete loss of activity
COc1cc2nccc(Oc3ccc(N)cc3)c2cc1OC [Compound 15, 4-((6,7-dimethoxyquinolin-4-yl)oxy)aniline]	complete loss of activity
O=C(Nc1ccc(F)cc1F)Nc1ccc(Oc2cnnc3ccccc23)cc1F [Compound 24, 1-(4-(cinnolin-4-yloxy)-2-fluorophenyl)-3-(2,4-difluorophenyl)urea]	complete loss of potency

Same assay, conditions: compared to 41

SMILES	fold drop in activity against PfPK6 compared to 41
COc1cc2nccc(Oc3ccc(NC(=O)Nc4ccc(N5CCN(C)CC5)cc4)c(F)c3)c2cc1OC [Compound 59, 1-(4-((6,7-dimethoxyquinolin-4-yl)oxy)-2-fluorophenyl)-3-(4-(4-methylpiperazin-1-yl)phenyl)urea]	30 fold
COc1cc2nccc(Oc3ccc(NC(=O)Nc4ccc(NC5CCN(C)CC5)cc4)c(F)c3)c2cc1OC [Compound 65, 1-(4-((6,7-dimethoxyquinolin-4-yl)oxy)-2-fluorophenyl)-3-(4-((1-methylpiperidin-4-yl)amino)phenyl)urea]	12 fold

Same assay, conditions: compared to Ki8751

SMILES	fold drop in potency against PfPK6 relative to Ki8751	fold increase in potency against PfPK6 compared to Ki8751
COc1ccc2c(Oc3ccc(NC(=O)Nc4ccc(F)cc4F)c(F)c3)ccnc2c1 [Compound 1, 1-(2,4-difluorophenyl)-3-(2-fluoro-4-((7-methoxyquinolin-4-yl)oxy)phenyl)urea]	3 fold	–
COc1ccc2nccc(Oc3ccc(NC(=O)Nc4ccc(F)cc4F)c(F)c3)c2c1 [Compound 2, 1-(2,4-difluorophenyl)-3-(2-fluoro-4-((6-methoxyquinolin-4-yl)oxy)phenyl)urea]	15 fold	–
O=C(Nc1ccc(F)cc1F)Nc1ccc(Oc2ccnc3ccccc23)cc1F [Compound 3, 1-(2,4-difluorophenyl)-3-(2-fluoro-4-(quinolin-4-yloxy)phenyl)urea]	34 fold	–
COc1cc2nccc(Oc3ccc(NC(=O)Nc4ccccc4F)c(F)c3)c2cc1OC [Compound 7, 1-(4-((6,7-dimethoxyquinolin-4-yl)oxy)-2-fluorophenyl)-3-(2-fluorophenyl)urea]	–	≥ 3 fold
COc1cc2nccc(Oc3ccc(NC(=O)Nc4ccc(F)cc4)c(F)c3)c2cc1OC [Compound 8, 1-(4-((6,7-dimethoxyquinolin-4-yl)oxy)-2-fluorophenyl)-3-(4-fluorophenyl)urea]	–	≥ 3 fold
COc1cc2nccc(Oc3ccc(NC(=O)Nc4ccccc4)c(F)c3)c2cc1OC [Compound 9, 1-(4-((6,7-dimethoxyquinolin-4-yl)oxy)-2-fluorophenyl)-3-phenylurea]	–	≥ 3 fold

Same assay, conditions: compared to quinoline 3

SMILES	fold improvement in PfPK6 potency on replacing the quinoline
O=C(Nc1ccc(F)cc1F)Nc1ccc(Oc2ccnc3[nH]ccc23)cc1F [Compound 29, 1-(4-((1H-pyrrolo[2,3-b]pyridin-4-yl)oxy)-2-fluorophenyl)-3-(2,4-difluorophenyl)urea]	4 fold

Same assay, conditions: read-out: PfPK6 activity remaining at 1 μM (%)

SMILES	remaining activity at 1 µM
O=C(Nc1ccc(O)cc1F)Nc1ccc(F)cc1F [Compound 5, 1-(2,4-difluorophenyl)-3-(2-fluoro-4-hydroxyphenyl)urea]	100%
COc1ccc(NC(=O)Nc2ccc(F)cc2F)c(F)c1 [Compound 6, 1-(2,4-difluorophenyl)-3-(2-fluoro-4-methoxyphenyl)urea]	100%
COc1cc2nccc(Oc3ccc(N)c(F)c3)c2cc1OC [Compound 14, 4-((6,7-dimethoxyquinolin-4-yl)oxy)-2-fluoroaniline]	100%
O=C(Nc1ccc(F)cc1F)Nc1ccc(Oc2cnnc3ccccc23)cc1F [Compound 24, 1-(4-(cinnolin-4-yloxy)-2-fluorophenyl)-3-(2,4-difluorophenyl)urea]	100%

Tested on: P. falciparum 3D7
Test: P. falciparum asexual blood stage viability assay
Type: cell-based
Conditions: Inactive = no inhibition when tested in triplicate at a single concentration of 1 μM

SMILES	Pf3D7 blood stage activity at single concentration
COc1cc2nccc(Oc3ccc(NC(=O)Nc4cccc(CN5CCN(C)CC5)c4)c(F)c3)c2cc1OC [Compound 42, 1-(4-((6,7-dimethoxyquinolin-4-yl)oxy)-2-fluorophenyl)-3-(3-((4-methylpiperazin-1-yl)methyl)phenyl)urea diformate]	loss of P. falciparum blood stage activity; also recorded: Inactive^e
COc1cc2nccc(Oc3ccc(NC(=O)Nc4ccc(C(=O)N5CCN(C)CC5)cc4)c(F)c3)c2cc1OC [Compound 43, 1-(4-((6,7-dimethoxyquinolin-4-yl)oxy)-2-fluorophenyl)-3-(4-(4-methylpiperazine-1-carbonyl)phenyl)urea]	did not observe antiplasmodial activity; also recorded: Inactive^e
COc1cc2nccc(Oc3ccc(NC(=O)Nc4cccc(C(=O)N5CCN(C)CC5)c4)c(F)c3)c2cc1OC [Compound 44, 1-(4-((6,7-dimethoxyquinolin-4-yl)oxy)-2-fluorophenyl)-3-(3-(4-methylpiperazine-1-carbonyl)phenyl)urea]	did not observe antiplasmodial activity; also recorded: Inactive^e
COc1cc2nccc(Oc3ccc(NC(=O)Nc4ccc(C(=O)N5CCN(C)CC5)c(C(F)(F)F)c4)c(F)c3)c2cc1OC [Compound 47, 1-(4-((6,7-dimethoxyquinolin-4-yl)oxy)-2-fluorophenyl)-3-(4-(4-methylpiperazine-1-carbonyl)-3-(trifluoromethyl)phenyl)urea]	Inactive^e
COc1cc2nccc(Oc3ccc(NC(=O)Nc4cc(C(=O)N5CCN(C)CC5)cc(C(F)(F)F)c4)c(F)c3)c2cc1OC [Compound 48, 1-(4-((6,7-dimethoxyquinolin-4-yl)oxy)-2-fluorophenyl)-3-(3-(4-methylpiperazine-1-carbonyl)-5-(trifluoromethyl)phenyl)urea formate]	Inactive^e
COc1cc2nccc(Oc3ccc(NC(=O)Nc4cccc(Br)c4)c(F)c3)c2cc1OC [Compound 50, 1-(3-bromophenyl)-3-(4-((6,7-dimethoxyquinolin-4-yl)oxy)-2-fluorophenyl)urea]	Inactive^d
COc1cc2nccc(Oc3ccc(NC(=O)Nc4cccc(C(C)C)c4)c(F)c3)c2cc1OC [Compound 52, 1-(4-((6,7-dimethoxyquinolin-4-yl)oxy)-2-fluorophenyl)-3-(3-isopropylphenyl)urea]	Inactive^d
COc1cccc(NC(=O)Nc2ccc(Oc3ccnc4cc(OC)c(OC)cc34)cc2F)c1 [Compound 54, 1-(4-((6,7-dimethoxyquinolin-4-yl)oxy)-2-fluorophenyl)-3-(3-methoxyphenyl)urea]	Inactive^d
COc1cc2nccc(Oc3ccc(NC(=O)Nc4cccc(OC(C)C)c4)c(F)c3)c2cc1OC [Compound 55, 1-(4-((6,7-dimethoxyquinolin-4-yl)oxy)-2-fluorophenyl)-3-(3-isopropoxyphenyl)urea]	Inactive^d
COc1cc2nccc(Oc3ccc(NC(=O)Nc4cccc(OC(F)F)c4)c(F)c3)c2cc1OC [Compound 56, 1-(3-(difluoromethoxy)phenyl)-3-(4-((6,7-dimethoxyquinolin-4-yl)oxy)-2-fluorophenyl)urea]	Inactive^d
COc1cc2nccc(Oc3ccc(NC(=O)Nc4cccc(C#N)c4)c(F)c3)c2cc1OC [Compound 58, 1-(3-cyanophenyl)-3-(4-((6,7-dimethoxyquinolin-4-yl)oxy)-2-fluorophenyl)urea]	Inactive^d
COc1cc2nccc(Oc3ccc(NC(=O)Nc4ccc(CN5CCOCC5)cc4)c(F)c3)c2cc1OC [Compound 60, 1-(4-((6,7-dimethoxyquinolin-4-yl)oxy)-2-fluorophenyl)-3-(4-(morpholinomethyl)phenyl)urea]	Inactive^c

Same assay, conditions: compared to parent compound without meta group (64, 66, 67 or 68)

SMILES	fold improvement in P. falciparum blood stage potency on adding CF3 or OCF3
COc1cc2nccc(Oc3ccc(NC(=O)Nc4ccc(OC5CCN(C)CC5)c(OC(F)(F)F)c4)c(F)c3)c2cc1OC [Compound 76, 1-(4-((6,7-dimethoxyquinolin-4-yl)oxy)-2-fluorophenyl)-3-(4-((1-methylpiperidin-4-yl)oxy)-3-(trifluoromethoxy)phenyl)urea]	4 fold
COc1cc2nccc(Oc3ccc(NC(=O)Nc4ccc(N(C)C5CCN(C)CC5)c(C(F)(F)F)c4)c(F)c3)c2cc1OC [Compound 77, 1-(4-((6,7-dimethoxyquinolin-4-yl)oxy)-2-fluorophenyl)-3-(4-(methyl(1-methylpiperidin-4-yl)amino)-3-(trifluoromethyl)phenyl)urea]	2 fold
COc1cc2nccc(Oc3ccc(NC(=O)Nc4ccc(CC5CCNCC5)c(OC(F)(F)F)c4)c(F)c3)c2cc1OC [Compound 80, 1-(4-((6,7-dimethoxyquinolin-4-yl)oxy)-2-fluorophenyl)-3-(4-(piperidin-4-ylmethyl)-3-(trifluoromethoxy)phenyl)urea]	2 fold
COc1cc2nccc(Oc3ccc(NC(=O)Nc4ccc(C=C5CCNCC5)c(C(F)(F)F)c4)c(F)c3)c2cc1OC [Compound 81, 1-(4-((6,7-dimethoxyquinolin-4-yl)oxy)-2-fluorophenyl)-3-(4-(piperidin-4-ylidenemethyl)-3-(trifluoromethyl)phenyl)urea]	2 fold
